# Reference: patent US11609238B2, “Method for detecting a radical compound derived from a lipid and a compound derived from the radical compound” (FUSO PHARMACEUTICAL INDUSTRIES, LTD., priority 2017, dated 2023)
# Columns and labels:
# hepatocellular carcinoma = test: Hepatocellular carcinogenesis three months after DEN administration, number of tumor foci; format: in vivo, rats (F344); settings: rats three months after DEN 100 mg/kg i.p.; 500 μM solution at 4 ml/kg 1 h after DEN; FIG. 6
# Description: (§1) Six week-old male rats (F344) were divided into 4 groups, and as a control, rats in Group 1 were administered with saline (PBS) by intraperitoneal injection. Rats in Groups 2-4 were administered with DEN at 100 mg/kg by intraperitoneal injection.
# (§2) One hour after DEN administration, physiological saline was administered to rats in Group 2 by intraperitoneal injection, rats in Group 3 were administered with a 500 μM OH-Pen solution at 4 ml/kg, and rats in Group 4 were administered with a 500 μM OH-Pen-NOMe solution at 4 ml/kg.
# Three months after DEN administration, rats in the respective groups were subjected to mixed anesthesia of 3 species, and they were sacrificed and livers were taken out promptly. Photographs of the livers taken from the rats of the respective groups are shown in FIG. 6, and the result of counting the number of tumor foci is shown in FIG. 6b.
# [1] = system: MDA, ALT (GPT), IL-6 in liver extracts of DEN-administered rats; test: Liver lipid peroxidation, hepatic injury and inflammatory markers after DEN administration; format: in vivo, rats (F344); settings: rat liver extract 24 h after DEN 100 mg/kg i.p.; 500 μM solution at 4 ml/kg 1 h after DEN; vs DEN group; FIG. 5
# Description: as §1, §2
# Twenty-four hours after DEN administration, livers were excised from rats in the respective groups and lipid extraction was carried out. For extracts, amounts of malondialdehyde; MDA as a peroxidized lipid marker, alanine transaminase (glutamate pyruvate transferase; ALT (GPT)) as a hepatic injury marker, and interleukin-6; IL-6 as an inflammatory marker were measured.
# [2] = system: human umbilical vein endothelial cell (HUVEC); test: Cytotoxicity of NBD-nitroxide, viable cell count; format: cell-based; settings: viable cells after incubation for 24 hours
# Description: Cytotoxicity of NBD-nitroxide was evaluated using human umbilical vein endothelial cell (HUVEC). When each concentration of the compound was added to HUVEC and the number of viable cells after incubation for 24 hours was counted, cytotoxicity was not observed up to 10 μM in any NBD-nitroxide.
# [3] = Scavenging of lipid radicals in hepatocellular carcinoma model mouse, LC/FL/MS of liver lipid extract; format: in vivo, mice (C57BL/6J)
# Description: It is appropriately selected according to the present invention, but not limited to, HPLC analysis is performed in this Example by injecting 10 μL of a sample solution into an InertSusteain® C18 analytical column (filled with ES silica having a particle size of 3 μm, 2.0×150 mm) manufactured by Mitsubishi Chemical Corporation, which is eluted with a mobile phase (A: 5.0 mM ammonium acetate in H2O, B:ACN:H2O (95:5)) at 40° C. at a rate of 0.4 ml/min. The time program of mobile phase elution was set to B %: 0 to 22 min; 60%, 22 to 60 min; 80%, 60 to 70 min; 100%.
# For each fraction eluted, fluorescence observation from NBD-Pen was performed at excitation wavelength (470 nm) and emission wavelength (530 nm) with a fluorescence detector (RF-20A xs manufactured by Shimadzu Corporation).
# Next, each fraction thus obtained was introduced into an ion detector (Q Exactive™ Hibrid Quadrupole-Orbitrap™ MS manufactured by Thermo Fisher Scientific Co., Ltd.) by electrospray ionization (ESI) and subjected to mass spectrometry.
# Male mice (C57BL/6J) at 8 weeks of age were divided into two groups. As a control, physiological saline (PBS) was administered to mice in Group 1 by intraperitoneal injection. DEN at 100 mg/kg was administered to mice in Group 2 by intraperitoneal injection.
# Four hours after DEN administration, a 500 μM NBD-Pen solution was administered at 4 ml/kg to mice in Groups 1 and 2 by intraperitoneal injection.
# Fifteen minutes after administration of NBD-Pen, livers were excised from the mice in the respective groups and lipid extraction was performed. LC/FL/MS analysis was performed on extracts under the same conditions as in Example 1. The structure of the radical adduct was analyzed by comparing the fluorescence peak observed at the LC/FL site with the precise mass analysis result at that column retention time. The results are described in Table 2 and FIG. 11.
# [4] = Reactivity of NBD-nitroxide with lipid radicals by fluorometry; settings: for fluorescence intensity on reaction with lipid radical: lipid radical produced using lipoxygenase (LOX) for LA, ALA or AA, FIG. 3
# Description: (§3) In order to investigate reaction selectivities of the above three types of NBD-nitroxide (NBD-Me, NBD-Et and NBD-Pen), reactivities with various ROS and lipid radical were evaluated by fluorometry. […] In addition, in the reaction with these compounds, no significant difference in fluorescence intensity was observed between these nitroxides, and there was no difference between the 2nd and 6th position substituents.
# [5] = Reactivity of NBD-nitroxide with reactive oxygen species by fluorometry; settings: hydrogen peroxide, hypochlorous acid
# Description: as §3
# [6] = Gr. 1, no DEN (PBS), mouse liver 15 min after 500 μM NBD-Pen 4 ml/kg i.p.
# [7] = Gr. 2, DEN 100 mg/kg i.p., NBD-Pen 500 μM 4 ml/kg i.p. 4 h after DEN, liver 15 min later
# [8] = superoxide anion radical, hydroxy radical or nitric oxide, FIG. 3
molecule,measurement,setting,value
"CCCCCC1(C)CC(O)CC(C)(C)N1[O] (centres unmarked) [OH-Pen, 4-hydroxy-2,2,6-trimethyl-6-pentylpiperidine-1-oxyl]",hepatocellular carcinogenesis (number of tumor foci),hepatocellular carcinoma,suppressed hepatocellular carcinogenesis
same,"alanine transaminase ALT (GPT), hepatic injury marker",[1],significantly decreased
same,"interleukin-6 (IL-6), inflammatory marker",[1],significantly decreased
same,"malondialdehyde (MDA), peroxidized lipid marker",[1],significantly decreased
"2,2,6-trimethyl-4-(4-nitrobenzo[1,2,5]oxadiazol-7-ylamino)-6-pentylpiperadine-1-oxyl [NBD-Pen]",concentration up to which cytotoxicity was not observed,[2],> 10 µM
same,Fluorescent intensity of NBD-Pen-R (a.u.) R,[3]; [6],29.72 a.u.
same,Fluorescent intensity of NBD-Pen-R (a.u.) R C2H5,[3]; [6],72.95 a.u.
same,Fluorescent intensity of NBD-Pen-R (a.u.) R C3H7,[3]; [6],143.69 a.u.
same,Fluorescent intensity of NBD-Pen-R (a.u.) R C5H11,[3]; [6],393.38 a.u.
same,Fluorescent intensity of NBD-Pen-R (a.u.) R,[3]; [7],353.94 a.u.
same,Fluorescent intensity of NBD-Pen-R (a.u.) R C2H5,[3]; [7],704.15 a.u.
same,Fluorescent intensity of NBD-Pen-R (a.u.) R C3H7,[3]; [7],1604.07 a.u.
same,Fluorescent intensity of NBD-Pen-R (a.u.) R C5H11,[3]; [7],3511.72 a.u.
same,"reactivity with the lipid radicals and thermal stability of nitroxide-lipid complex, comparison among Compounds A to C",[4],predominant
same,fluorescence intensity on reaction with lipid radicals,"[4]; LA, ALA, AA activated with LOX, AAPH or MeO-AMVN, FIG. 4",remarkably increased
same,fluorescence intensity on reaction with lipid radical,[4],significantly elevated
same,fluorescence on reaction with reactive oxygen species,"[5]; superoxide anion radical or hydroxy radical, FIG. 4",fluorescence did not increase much
same,fluorescence on reaction with reactive oxygen species,[5]; [8],fluorescence did not increase much
CCC1(CC)CC(Nc2ccc([N+](=O)[O-])c3nonc23)CC(CC)(CC)N1[O] [NBD-Et],fluorescence intensity on reaction with lipid radical,[4],significantly elevated
same,fluorescence on reaction with reactive oxygen species,[5]; [8],fluorescence did not increase much
CC1(C)CC(Nc2ccc([N+](=O)[O-])c3nonc23)CC(C)(C)N1[O] [NBD-Me],fluorescence intensity on reaction with lipid radical,[4],significantly elevated
same,fluorescence on reaction with reactive oxygen species,[5]; [8],fluorescence did not increase much
"CCCCCC1(C)CC(O)CC(C)(C)N1OC (centres unmarked) [OH-Pen-NOMe, 4-hydroxy-1-methoxy-2,2,6-trimethyl-6-pentylpiperidine-1-oxyl]",hepatocellular carcinogenesis (number of tumor foci),hepatocellular carcinoma,not suppressed at all
same,"alanine transaminase ALT (GPT), hepatic injury marker",[1],almost no drop
same,"interleukin-6 (IL-6), inflammatory marker",[1],almost no drop
same,"malondialdehyde (MDA), peroxidized lipid marker",[1],almost no drop
